Values after ≈ are worked out from the molar mass of the structure shown.
Key:
[1] = Cytotoxicity against human PC3 cells after 72 hrs by XTT assay; type: functional, cell-based; settings: PC-3, 72 h
A549 = assay: Cytotoxicity against human A549 cells after 72 hrs by XTT assay; type: functional, cell-based; settings: A549, 72 h
Staphylococcus aureus [2] = assay: Antimicrobial activity against Staphylococcus aureus MLS16 MTCC 2940 after 24 hrs by well diffusion method; type: functional; settings: MLS16 MTCC 2940, 24 h
Staphylococcus aureus [3] = assay: Antimicrobial activity against Staphylococcus aureus MTCC 96 after 24 hrs by well diffusion method; type: functional; settings: MTCC 96, 24 h
Candida albicans = assay: Antimicrobial activity against Candida albicans MTCC 3017 after 24 hrs by well diffusion method; type: functional; settings: MTCC 3017, 24 h
Staphylococcus aureus [4] = assay: Bactericidal activity against Staphylococcus aureus MLS16 MTCC 2940 after 24 hrs by serial dilution method; type: functional; settings: MLS16 MTCC 2940, 24 h
Staphylococcus aureus [5] = assay: Bactericidal activity against Staphylococcus aureus MTCC 96 after 24 hrs by serial dilution method; type: functional; settings: MTCC 96, 24 h
Bacillus subtilis [6] = assay: Antibiofilm activity against Bacillus subtilis MTCC 121 after 24 hrs by crystal violet staining based assay; type: functional, organism-based; settings: MTCC 121, 24 h
Bacillus subtilis [7] = assay: Antimicrobial activity against Bacillus subtilis MTCC 121 after 24 hrs by well diffusion method; type: functional; settings: MTCC 121, 24 h
Escherichia coli = assay: Antimicrobial activity against Escherichia coli MTCC 739 after 24 hrs by well diffusion method; type: functional; settings: MTCC 739, 24 h
Raoultella planticola [8] = assay: Bactericidal activity against Klebsiella planticola MTCC 530 after 24 hrs by serial dilution method; type: functional; settings: MTCC 530, 24 h
Raoultella planticola [9] = assay: Antimicrobial activity against Klebsiella planticola MTCC 530 after 24 hrs by well diffusion method; type: functional; settings: MTCC 530, 24 h
Micrococcus luteus [10] = assay: Bactericidal activity against Micrococcus luteus MTCC 2470 after 24 hrs by serial dilution method; type: functional; settings: MTCC 2470, 24 h
Micrococcus luteus [11] = assay: Antimicrobial activity against Micrococcus luteus MTCC 2470 after 24 hrs by well diffusion method; type: functional; settings: MTCC 2470, 24 h
Bacillus subtilis [12] = assay: Bactericidal activity against Bacillus subtilis MTCC 121 after 24 hrs by serial dilution method; type: functional; settings: MTCC 121, 24 h
Pseudomonas aeruginosa = assay: Antimicrobial activity against Pseudomonas aeruginosa MTCC 2453 after 24 hrs by well diffusion method; type: functional; settings: MTCC 2453, 24 h
Micrococcus luteus [13] = assay: Antibiofilm activity against Micrococcus luteus MTCC 2470 after 24 hrs by crystal violet staining based assay; type: functional, organism-based; settings: MTCC 2470, 24 h

COc1ccc(OC)c(-c2cc(-c3ccc(C(=O)N4CCCCC4)s3)on2)c1
IC50 [1]: > 30 µM
IC50 (A549): > 30 µM

COc1ccc(OC)c(-c2cc(-c3ccc(C(=O)NCC4CC4)s3)on2)c1
IC50 [1]: > 30 µM
IC50 (A549): > 30 µM

COc1ccc(OC)c(-c2cc(-c3ccc(C(=O)N(C)Cc4ccc(F)cc4)s3)on2)c1
IC50 [1]: > 30 µM
IC50 (A549): > 30 µM

COc1ccc(OC)c(-c2cc(-c3ccc(C(=O)N(C)C)s3)on2)c1
IC50 [1]: > 30 µM
IC50 (A549): > 30 µM

O=C1C=C(N2CC2)C(=O)C(c2cc(-c3ccc(C(=O)NCC4CC4)s3)on2)=C1N1CC1
MIC (Staphylococcus aureus [2]): > 125 mg/L
MIC (Staphylococcus aureus [3]): > 125 mg/L
IC50 [1]: 3.5 µM
MIC (Candida albicans): 15.6 mg/L (≈ 35.7 µM)
MBC (Staphylococcus aureus [4]): > 125 mg/L
MBC (Staphylococcus aureus [5]): > 125 mg/L
IC50 (Bacillus subtilis [6]): 9.8 µM
IC50 (A549): 2.1 µM
MIC (Bacillus subtilis [7]): 15.6 mg/L (≈ 35.7 µM)
MIC (Escherichia coli): > 125 mg/L
MBC (Raoultella planticola [8]): > 125 mg/L
MIC (Raoultella planticola [9]): > 125 mg/L
MBC (Micrococcus luteus [10]): > 125 mg/L
MIC (Micrococcus luteus [11]): > 125 mg/L
MBC (Bacillus subtilis [12]): 31.2 mg/L (≈ 71.5 µM)
MIC (Pseudomonas aeruginosa): > 125 mg/L

CCN(CC)C(=O)c1ccc(-c2cc(C3=CC(=O)C=CC3=O)no2)s1
IC50 [1]: 8.9 µM
IC50 (A549): 10 µM

COc1ccc(OC)c(-c2cc(-c3ccc(C(=O)NC4CC4)s3)on2)c1
IC50 [1]: 7.8 µM
IC50 (A549): > 30 µM

O=C1C=C(N2CC2)C(=O)C(c2cc(-c3ccc(C(=O)N4CCCC4)s3)on2)=C1N1CC1
MIC (Staphylococcus aureus [2]): 15.6 mg/L (≈ 35.7 µM)
MIC (Staphylococcus aureus [3]): 15.6 mg/L (≈ 35.7 µM)
IC50 [1]: 1 µM
MIC (Candida albicans): 31.2 mg/L (≈ 71.5 µM)
MBC (Staphylococcus aureus [4]): 31.2 mg/L (≈ 71.5 µM)
MBC (Staphylococcus aureus [5]): 31.2 mg/L (≈ 71.5 µM)
IC50 (A549): 1.7 µM
MIC (Bacillus subtilis [7]): 7.8 mg/L (≈ 17.9 µM)
MIC (Escherichia coli): > 125 mg/L
MBC (Raoultella planticola [8]): 31.2 mg/L (≈ 71.5 µM)
MIC (Raoultella planticola [9]): 15.6 mg/L (≈ 35.7 µM)
MBC (Micrococcus luteus [10]): 62.5 mg/L (≈ 143 µM)
MIC (Micrococcus luteus [11]): 31.2 mg/L (≈ 71.5 µM)
MBC (Bacillus subtilis [12]): 15.6 mg/L (≈ 35.7 µM)
MIC (Pseudomonas aeruginosa): > 125 mg/L

CN(C)C(=O)c1ccc(-c2cc(C3=CC(=O)C=CC3=O)no2)s1
IC50 [1]: 7.2 µM
IC50 (A549): > 30 µM

O=C1C=C(N2CC2)C(=O)C(c2cc(-c3ccc(C(=O)N4CCC(C(F)(F)F)CC4)s3)on2)=C1N1CC1
MIC (Staphylococcus aureus [2]): > 125 mg/L
MIC (Staphylococcus aureus [3]): > 125 mg/L
IC50 [1]: 2 µM
MIC (Candida albicans): 31.2 mg/L (≈ 60.2 µM)
MBC (Staphylococcus aureus [4]): > 125 mg/L
MBC (Staphylococcus aureus [5]): > 125 mg/L
IC50 (Bacillus subtilis [6]): 2.1 µM
IC50 (A549): 3.7 µM
MIC (Bacillus subtilis [7]): 3.9 mg/L (≈ 7.52 µM)
MIC (Escherichia coli): > 125 mg/L
IC50 (Micrococcus luteus [13]): 16.2 µM
MBC (Raoultella planticola [8]): > 125 mg/L
MIC (Raoultella planticola [9]): > 125 mg/L
MBC (Micrococcus luteus [10]): 62.5 mg/L (≈ 121 µM)
MIC (Micrococcus luteus [11]): 31.2 mg/L (≈ 60.2 µM)
MBC (Bacillus subtilis [12]): 7.8 mg/L (≈ 15 µM)
MIC (Pseudomonas aeruginosa): > 125 mg/L

CCCN(C)C(=O)c1ccc(-c2cc(-c3cc(OC)ccc3OC)no2)s1
IC50 [1]: > 30 µM
IC50 (A549): > 30 µM

O=C1C=CC(=O)C(c2cc(-c3ccc(C(=O)NCC4CC4)s3)on2)=C1
IC50 [1]: > 30 µM
IC50 (A549): > 30 µM

COc1ccc(CN(C)C(=O)c2ccc(-c3cc(C4=CC(=O)C=CC4=O)no3)s2)cc1
IC50 [1]: < 30 µM
IC50 (A549): > 30 µM

COc1ccc(OC)c(-c2cc(-c3ccc(C(=O)N4CCCC4)s3)on2)c1
IC50 [1]: > 30 µM
IC50 (A549): > 30 µM

COc1ccc(OC)c(-c2cc(-c3ccc(C(=O)N4CCOCC4)s3)on2)c1
IC50 [1]: > 30 µM
IC50 (A549): > 30 µM

— ChEMBL document CHEMBL3808371, “Design, synthesis and biological evaluation of diaziridinyl quinone isoxazole hybrids” (Eur J Med Chem, 2016)
